The term IC50 denotes the concentration needed to halve the response being measured. A higher IC50 goes with a need for much substance.

Assay [1] concerns the target Human mitochondrial SHMT2 (Homo sapiens (Human), UniProt P34897). Description: SHMT2 activity inhibition assay (serine production from glycine and CH2-THF, mass spectroscopy). The conditions noted are these: 60 minutes at room temperature. The format is biochemical. The source says:
(§1) Full length human cytosolic Serine Hydroxymethyl transferase 1 (SHMT1, residues 1-483 in Uniport ID P34896) was expressed as an N-terminal His6 tagged protein and purified in E. coli using nickel capture followed by size-exclusion chromatography. Human mitochondrial SHMT2 (residues 30-504 in Uniprot ID P34897) with mitochondrial leader sequence deleted was expressed as an N-terminal His6 tagged protein and purified in E. coli using nickel capture followed by size-exclusion chromatography.
Serine hydroxymethyltransferases catalyze the reversible hydroxymethylation of glycine to serine, with methylene tetrahydrofolate (CH2-THF) providing the additional carbon. SHMT1 and SHMT2 activity was determined by measuring serine production from glycine and CH2-THF using mass spectroscopy. Briefly, 15 ul of 0.5 mM glycine and 0.2 mM CH2-THF in 20 mM TEA, pH8.0, 0.2 mM NADPH were added to 384 well plate containing 0, 0.05 mM, 0.005 mM or 0.0005 mM of inhibitor. […] The plate was incubated for 60 minutes at room temperature and the reaction was quenched by the addition of 30 ul of 10% trichloroacetic acid. Serine produced was analyzed using Rapidfire 360 and API4000^+ in the positive ion mode.

In assay [2] the target is human cytosolic Serine Hydroxymethyl transferase 1 (SHMT1) (Homo sapiens (Human), UniProt P34896). Description: SHMT1 activity inhibition assay (serine production from glycine and CH2-THF, mass spectroscopy). The format is biochemical. The conditions noted are these: 60 minutes at room temperature.
human cytosolic Serine Hydroxymethyl transferase 1 (SHMT1), sequence (P34896 whole entry): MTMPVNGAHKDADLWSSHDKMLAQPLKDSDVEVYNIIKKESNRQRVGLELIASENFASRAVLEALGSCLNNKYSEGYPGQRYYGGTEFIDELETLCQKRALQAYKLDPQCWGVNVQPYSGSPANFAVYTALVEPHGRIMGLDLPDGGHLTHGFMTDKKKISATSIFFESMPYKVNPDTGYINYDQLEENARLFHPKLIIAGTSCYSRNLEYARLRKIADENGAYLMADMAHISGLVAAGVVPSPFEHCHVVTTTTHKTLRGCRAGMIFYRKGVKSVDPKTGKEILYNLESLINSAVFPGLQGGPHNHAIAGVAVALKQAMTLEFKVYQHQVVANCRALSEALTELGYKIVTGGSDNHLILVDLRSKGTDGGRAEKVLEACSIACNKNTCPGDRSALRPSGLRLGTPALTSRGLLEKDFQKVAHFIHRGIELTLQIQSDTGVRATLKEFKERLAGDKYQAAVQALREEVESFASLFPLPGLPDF
Source text: as §1
Serine hydroxymethyltransferases catalyze the reversible hydroxymethylation of glycine to serine, with methylene tetrahydrofolate (CH2-THF) providing the additional carbon. SHMT1 and SHMT2 activity was determined by measuring serine production from glycine and CH2-THF using mass spectroscopy. Briefly, 15 ul of 0.5 mM glycine and 0.2 mM CH2-THF in 20 mM TEA, pH8.0, 0.2 mM NADPH were added to 384 well plate containing 0, 0.05 mM, 0.005 mM or 0.0005 mM of inhibitor. 15 ul of SHMT1 or 2 were added to initiate the reaction. The plate was incubated for 60 minutes at room temperature and the reaction was quenched by the addition of 30 ul of 10% trichloroacetic acid. Serine produced was analyzed using Rapidfire 360 and API4000^+ in the positive ion mode.

Human mitochondrial SHMT2, sequence (P34897 30-504): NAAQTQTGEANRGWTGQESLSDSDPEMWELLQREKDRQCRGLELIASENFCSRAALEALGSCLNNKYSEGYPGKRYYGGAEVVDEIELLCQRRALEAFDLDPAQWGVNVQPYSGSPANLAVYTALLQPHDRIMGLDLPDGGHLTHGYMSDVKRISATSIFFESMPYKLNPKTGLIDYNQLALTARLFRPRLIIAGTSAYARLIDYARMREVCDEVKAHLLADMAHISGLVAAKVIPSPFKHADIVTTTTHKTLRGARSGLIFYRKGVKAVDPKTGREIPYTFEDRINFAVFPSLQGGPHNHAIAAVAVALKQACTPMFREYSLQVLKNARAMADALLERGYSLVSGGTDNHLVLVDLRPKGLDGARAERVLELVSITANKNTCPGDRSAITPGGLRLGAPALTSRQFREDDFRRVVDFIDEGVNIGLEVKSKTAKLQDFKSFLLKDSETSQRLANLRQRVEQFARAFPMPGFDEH

`CC(C)(NC(=O)Cc1csc(-c2ccc(Cl)cc2-c2cccc(C#N)c2)n1)C(=O)O` [Compound I-1, 2-[[2-[2-[4-Chloro-2-(3-cyanophenyl)phenyl]thiazol-4-yl]acetyl]amino]-2-methyl-propanoic Acid]: the IC50 in assay [1] and in assay [2] was less than 1000 nM in each case. As to `CC(C)(NC(=O)Cc1csc(-c2ccc3c(c2-c2ccccc2)OCCO3)n1)C(=O)O` [Compound I-2, 2-Methyl-2-[[2-[2-(5-phenyl-2,3-dihydro-1,4-benzodioxin-6-yl)thiazol-4-yl]acetyl]amino] propanoic Acid], the IC50 in assay [1] is 1000 to 10000 nM; in assay [2] it was less than 1000 nM. As for `Cc1ccc(-c2cc(Cl)ccc2-c2cccc(CC(=O)NC(C)(C)C(=O)O)c2)cc1` [Compound I-3, 2-[[2-[3-[4-Chloro-2-(p-tolyl)phenyl]phenyl]acetyl]amino]-2-methyl-propanoic Acid], the IC50 in assay [1] and in assay [2] was less than 1000 nM in each case. Consider `Cc1cccc(-c2cc(Cl)ccc2-c2nc(CC(=O)NC(C)(C)C(=O)O)cs2)c1` [Compound I-4], for which the IC50 in assay [1] and in assay [2] was less than 1000 nM each time. Take `CC(C)(NC(=O)Cc1csc(-c2ccc(Cl)cc2-c2ccccc2)n1)C(=O)O` [Compound I-5]: the IC50 in assay [1] and in assay [2] was less than 1000 nM each time. Take `CC(C)(NC(=O)Cc1csc(-c2ccc(Cl)cc2-c2cccc(Cl)c2)n1)C(=O)O` [Compound I-6]: the IC50 in assay [1] and in assay [2] was less than 1000 nM in each case. On to `CC(C)(NC(=O)Cc1csc(-c2ccc(Cl)cc2-c2cccc3c2COC3)n1)C(=O)O` [Compound I-7], for which the half-inhibitory concentration (IC50) in assay [1] and in assay [2] was less than 1000 nM each time. With `COc1cc(-c2nc(CC(=O)NC(C)(C)C(=O)O)cs2)c(-c2ccccc2)cc1Cl` [Compound I-8, 2-[[2-[2-(4-chloro-5-methoxy-2-phenyl-phenyl)thiazol-4-yl]acetyl]amino]-2-methyl-propanoic Acid], the IC50 in assay [1] and in assay [2] was less than 1000 nM in each case. For the molecule `Cc1cccc(-c2cc(Cl)ccc2-c2nc(CC(=O)NC(C)(C)C(=O)O)cs2)c1C` [Compound I-9], the IC50 in assay [1] and in assay [2] was less than 1000 nM in each case. `CC(C)(NC(=O)Cc1csc(-c2ccc(Cl)cc2CC2CCC2)n1)C(=O)O` [Compound I-10, 2-[[2-[2-[4-Chloro-2-(cyclobutylmethyl)phenyl]thiazol-4-yl]acetyl]amino]-2-methyl-propanoic Acid]: the IC50 in assay [1] and in assay [2] was less than 1000 nM throughout. `CC(=O)N1CCC(c2cc(Cl)ccc2-c2nc(CC(=O)NC(C)(C)C(=O)O)cs2)CC1` [Compound I-11, 2-[[2-[2-[2-(1-Acetyl-4-piperidyl)-4-chloro-phenyl]thiazol-4-yl]acetyl]amino]-2-methyl-propanoic Acid]: the 50% inhibitory concentration (IC50) in assay [1] is less than 1000 nM; in assay [2], 1000 to 10000 nM. With `CCc1cccc(-c2cc(Cl)ccc2-c2nc(CC(=O)NC(C)(C)C(=O)O)cs2)c1` [Compound I-12], the IC50 in assay [1] was less than 1000 nM; in assay [2], 1000 to 10000 nM. As to `COc1ccc(-c2nc(CC(=O)NC(C)(C)C(=O)O)cs2)c(-c2ccccc2)c1` [Compound I-13, 2-[[2-[2-(4-Methoxy-2-phenyl-phenyl)thiazol-4-yl]acetyl]amino]-2-methyl-propanoic Acid], the IC50 in assay [2] was 1000 to 10000 nM. For `CC(C)(NC(=O)Cc1csc(-c2ccc(Cl)cc2-c2cccc3c2CCC3)n1)C(=O)O` [Compound I-14], the IC50 is less than 1000 nM in assay [1] and 1000 to 10000 nM in assay [2]. Consider `CC(C)(NC(=O)Cc1cccc(-c2ccc(Cl)cc2-c2ccc(F)cc2)c1)C(=O)O` [Compound I-15, 2-[[2-[3-[4-Chloro-2-(4-fluorophenyl)phenyl]phenyl]acetyl]amino]-2-methyl-propanoic Acid], for which the results for the half-inhibitory concentration (IC50) in assay [1] and in assay [2] were less than 1000 nM and 1000 to 10000 nM, respectively. On the same counts, the results for `CC(C)(NC(=O)Cc1csc(-c2ccc(Cl)cc2C2CCOCC2)n1)C(=O)O` [Compound I-16, 2-[[2-[2-(4-Chloro-2-tetrahydropyran-4-yl-phenyl)thiazol-4-yl]acetyl]amino]-2-methyl-propanoic Acid] are less than 1000 nM and 1000 to 10000 nM. On the same counts, the results for `CC(C)(NC(=O)Cc1cncc(-c2ccc(Cl)cc2-c2ccccc2)c1)C(=O)O` [Compound I-17, 2-[[2-[5-(4-Chloro-2-phenyl-phenyl)-3-pyridyl]acetyl]amino]-2-methyl-propanoic Acid] are less than 1000 nM and 1000 to 10000 nM. Take `CC(C)(NC(=O)Cc1cccc(-c2ccc(Cl)cc2-c2ccccc2)n1)C(=O)O` [Compound I-18]: the figures for the 50% inhibitory concentration (IC50) in assay [1] and in assay [2] were less than 1000 nM and 1000 to 10000 nM, respectively. For `CC(C)(NC(=O)Cc1cccc(-c2ccc(Cl)cc2-c2cccc(C(N)=O)c2)c1)C(=O)O` [Compound I-19, 2-[[2-[3-[2-(3-Carbamoylphenyl)-4-chloro-phenyl]phenyl]acetyl]amino]-2-methyl-propanoic Acid], the IC50 was less than 1000 nM in assay [1] and 1000 to 10000 nM in assay [2]. Take `CC(C)(NC(=O)Cc1ccnc(-c2ccc(Cl)cc2-c2ccccc2)c1)C(=O)O` [Compound I-20]: in assay [2], the IC50 is 1000 to 10000 nM.

As for `CC(C)Cc1cc(Cl)ccc1-c1nc(CC(=O)NC(C)(C)C(=O)O)cs1` [Compound I-21], the IC50 in assay [1] is less than 1000 nM; in assay [2], 1000 to 10000 nM. As for `CC(C)(NC(=O)Cc1cc(-c2ccc(Cl)cc2-c2ccccc2)ccn1)C(=O)O` [Compound I-23], the IC50 in assay [1] and in assay [2] was 1000 to 10000 nM each time. Take `CC(C)(NC(=O)Cc1csc(-c2ccc(Cl)cc2Cl)n1)C(=O)O` [Compound I-24]: the IC50 in assay [1] is less than 1000 nM; in assay [2] it was 1000 to 10000 nM.

In the case of `CC(C)c1cc(Cl)ccc1-c1nc(CC(=O)NC(C)(C)C(=O)O)cs1` [Compound I-25], the IC50 is less than 1000 nM in assay [1] and 1000 to 10000 nM in assay [2]. For the molecule `CC(C)(NC(=O)Cc1csc(-c2ccc(Cl)cc2C2CC2)n1)C(=O)O` [Compound I-26], the results for the IC50 in assay [1] and in assay [2] were 1000 to 10000 nM and 10000 to 100000 nM, respectively. As to `CCc1cc(Cl)ccc1-c1nc(CC(=O)NC(C)(C)C(=O)O)cs1` [Compound I-27], the IC50 in assay [1] was 1000 to 10000 nM; in assay [2], 10000 to 100000 nM.

Regarding `O=C(Cc1csc(-c2ccc(Cl)cc2Cl)n1)NC1(C(=O)O)CCC1` [Compound I-28], the IC50 in assay [1] fell in the range of 1000 to 10000 nM; in assay [2], 10000 to 100000 nM.

In the case of `CC(C)(NC(=O)Cc1ccnc(-c2ccc(Cl)cc2-c2ccccc2)n1)C(=O)O` [Compound I-29], the results for the IC50 in assay [1] and in assay [2] were 1000 to 10000 nM and 10000 to 100000 nM, respectively. On the same counts, the results for `CC(C)(NC(=O)Cc1cccc(-c2ccc(Cl)cc2)c1)C(=O)O` [Compound I-30, 2-[2-[3-(4-chlorophenyl)phenyl]acetamido]-2-methylpropanoic Acid] are 1000 to 10000 nM and 10000 to 100000 nM. On the same counts, the results for `CC(C)(NC(=O)Cc1csc(-c2ccc(Cl)cc2C2CCNCC2)n1)C(=O)O` [Compound I-31, 2-[[2-[2-[4-Chloro-2-(4-piperidyl)phenyl]thiazol-4-yl]acetyl]amino]-2-methyl-propanoic Acid] are 1000 to 10000 nM and 10000 to 100000 nM.

In the case of `CC[C@@H](C)[C@H](NC(=O)Cc1csc(-c2cccc(Cl)c2)n1)C(=O)O` [Compound I-32], the IC50 in assay [1] and in assay [2] was 10000 to 100000 nM in each case. In the case of `Cc1sc(-c2ccc(Cl)cc2Cl)nc1CC(=O)NC(C)(C)C(=O)O` [Compound I-33], the IC50 in assay [1] lay in the range of 1000 to 10000 nM; in assay [2] it was 10000 to 100000 nM.

These data come from patent publication US11091451B2, “SHMT inhibitors and uses thereof” (Raze Therapeutics, Inc., priority 2016, dated 2021).
